Reference: US5486597A, “Tetrapeptide derivatives and analogues” (James Black Foundation Limited, priority 1990, dated 1996)
Each block holds one compound with its values, some of them ahead of it. Non-standard residues stand in square brackets, D forms with d. Residues, ends and D or L forms follow the SMILES beside them. *: point of attachment. Trp(5-F) = N[C@@H](Cc1c[nH]c2ccc(F)cc12)C(=O)O; 2Nal = N[C@@H](Cc1ccc2ccccc2c1)C(=O)O; Boc = CC(C)(C)OC(=O)*

How the values were obtained:
Assay type in all cases: cell-based
[1] = target: T1, cholecystokinin receptors (Cavia porcellus, UniProt Q63931); experiment: CCK-antagonist activity in isolated guinea-pig gall-bladder strip preparations; conditions: guinea-pig gall-bladder strips; CCK-8 as agonist; test compound incubated for 60 minutes; standard errors less than 5%
T1 construct: Isolated, strip preparations were prepared from gall-bladders removed from male Dunkin-Hartley guinea-pigs; from tissue; host or cells: guinea-pig gall-bladder strips
T1 sequence (Q63931 1-430): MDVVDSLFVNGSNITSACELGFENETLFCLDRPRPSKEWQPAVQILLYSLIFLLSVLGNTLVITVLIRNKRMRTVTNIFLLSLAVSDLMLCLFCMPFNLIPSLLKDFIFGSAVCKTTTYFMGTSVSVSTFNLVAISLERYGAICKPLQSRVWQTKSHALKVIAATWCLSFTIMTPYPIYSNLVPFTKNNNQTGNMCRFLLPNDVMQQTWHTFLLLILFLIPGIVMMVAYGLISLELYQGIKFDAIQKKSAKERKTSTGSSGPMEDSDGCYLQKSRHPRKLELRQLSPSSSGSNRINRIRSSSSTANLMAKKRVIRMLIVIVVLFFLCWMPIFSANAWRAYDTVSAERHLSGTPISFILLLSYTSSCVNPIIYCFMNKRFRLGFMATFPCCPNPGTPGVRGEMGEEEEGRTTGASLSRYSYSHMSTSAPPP
In short: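 Male Dunkin-Hartley guinea-pig gall-bladder strips under 1 g isometric tension in Krebs (0.5 mM Ca²⁺), 37° C, 95% O2/5% CO2, stabilised 90 min. Cumulative CCK-8 concentration-effect curves without and with test compound (60 min preincubation); antagonism expressed as […] by modified competitive analysis.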

gastrin receptor [2] = target: T2, gastrin receptor (Mus musculus, UniProt P56481); experiment: mouse stomach assay for gastrin activity (isolated stomach, acid secretion); conditions: for pKB mouse stomach / Kb: isolated mouse stomach assay, gastrin antagonism, standard errors less than 5%; for Kb: read-out: pKB mouse stomach (converted); for Acid seretion at 10^-5 M test compound, relative to pentagastrin (%): mouse stomach, NS = not significant
T2 construct: assayed for gastrin activity using the mouse stomach assay; from tissue; host or cells: isolated mouse stomach
T2 sequence (P56481 1-453): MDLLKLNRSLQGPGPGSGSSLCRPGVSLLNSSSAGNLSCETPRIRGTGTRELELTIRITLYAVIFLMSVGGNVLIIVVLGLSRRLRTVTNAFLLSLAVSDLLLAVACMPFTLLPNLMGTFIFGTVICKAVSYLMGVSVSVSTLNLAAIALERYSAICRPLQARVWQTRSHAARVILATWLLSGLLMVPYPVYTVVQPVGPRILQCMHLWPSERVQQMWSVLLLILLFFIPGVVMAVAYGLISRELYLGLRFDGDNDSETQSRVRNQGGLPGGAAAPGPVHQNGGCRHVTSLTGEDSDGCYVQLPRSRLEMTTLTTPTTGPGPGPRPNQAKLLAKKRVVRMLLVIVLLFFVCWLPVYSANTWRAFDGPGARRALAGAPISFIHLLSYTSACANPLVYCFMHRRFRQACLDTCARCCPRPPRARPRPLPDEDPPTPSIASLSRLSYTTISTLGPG
Procedure: The compounds were assayed for gastrin activity using the mouse stomach assay as described by Black, J. W. and Shankley, N. P., Br. J. Pharmacol., 86, 571-579, (1985), and also in the guinea-pig fundus assay, as follows: […]

gastrin receptor [3] = target: T3, gastrin receptor (Cavia porcellus, UniProt H0VZC5); experiment: guinea-pig fundus assay for gastrin activity (stomach muscle strips); conditions: 10^-8 M devazepide present, 60 minute equilibration, agonist e.g. pentagastrin, standard errors less than 5%
T3 construct: Strips of muscle (approximately 2.5 cm by 1 cm) are removed from the proximal area of the stomach; from tissue; host or cells: guinea-pig proximal stomach (fundus) muscle strips
T3 sequence (H0VZC5 1-426): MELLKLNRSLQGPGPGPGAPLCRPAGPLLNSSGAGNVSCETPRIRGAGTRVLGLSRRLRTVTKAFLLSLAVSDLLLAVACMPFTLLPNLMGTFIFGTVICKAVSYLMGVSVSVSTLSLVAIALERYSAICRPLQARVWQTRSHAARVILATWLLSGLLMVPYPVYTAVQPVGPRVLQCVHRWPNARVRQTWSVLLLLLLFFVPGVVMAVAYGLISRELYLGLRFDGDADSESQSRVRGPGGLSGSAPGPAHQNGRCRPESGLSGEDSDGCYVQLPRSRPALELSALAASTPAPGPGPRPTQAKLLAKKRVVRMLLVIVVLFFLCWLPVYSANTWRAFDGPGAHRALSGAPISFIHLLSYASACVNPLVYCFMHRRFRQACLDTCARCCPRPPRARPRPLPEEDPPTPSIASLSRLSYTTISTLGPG
Procedure: The compounds were assayed for gastrin activity using the mouse stomach assay as described by Black, J. W. and Shankley, N. P., Br. J. Pharmacol., 86, 571-579, (1985), and also in the guinea-pig fundus assay, as follows:
The stomach is removed from a male Dunkin-Hartley guinea-pig (250-500 g), and Krebs solution is injected through a hypodermic needle under the top stomach muscle layer. The composition (mM) of the Krebs solution is as follows: Na^+ 143, K^+ 5.9, Ca^2+ 2.5, Mg^2+ 1.2, Cl^- 128, H2 PO4^- 2.2, HCO3^- 24.9, SO4^2- 1.2, dextrose 10. Strips of muscle (approximately 2.5 cm by 1 cm) are removed from the proximal area of the stomach (one from each side) and tied with cotton thread to isotonic transducers under an initial loading tension of 0.35 g.
The preparation is immersed in 20 mls of Krebs solution containing 10^-8 M devazepide (25 μl 2×10^-3 M devazepide/100% DMF solution in 5 dm^3 Krebs) and gassed with 95% O2 /5% CO2. The function of the devazepide is to block possible effects at CCK receptors present in the tissue.
The preparation is washed twice over a 60 minute period then 10 mM KCl is added. At 90 minutes, test compounds (ie. potential antagonists) are added and a further 60 minute equilibration period allowed. After this time, cumulative agonist (e.g. pentagastrin) dose-response curves are constructed.

Compound: COc1cccc(CCNC(=O)[C@H](CC(=O)O)NC(=O)[C@H](Cc2ccc3ccccc3c2)NC(=O)[C@H](Cc2c[nH]c3ccccc23)NC(=O)OC(C)(C)C)c1 [Example 56, N-t-Butyloxycarbonyl-L-tryptophyl-L-3-(2-naphthyl)alanyl-L-aspartyl-3-methoxyphenethylamide]
pKB [1]: 7.2
pKB mouse stomach (gastrin receptor [2]): 5.6
pKB (gastrin receptor [3]): 5.5

Compound: CC(C)(C)OC(=O)N[C@@H](Cc1c[nH]c2ccccc12)C(=O)N[C@@H](Cc1ccc2ccccc2c1)C(=O)N[C@@H](CC(=O)O)C(=O)NCCc1ccccc1F [Example 54, N-t-Butyloxycarbonyl-L-tryptophyl-L-3-(2-naphthyl)alanyl-L-aspartyl-2-fluorophenethylamide]
pKB [1]: 6.4
pKB mouse stomach (gastrin receptor [2]): 5.4
Acid seretion at 10^-5 M test compound, relative to pentagastrin (%) (gastrin receptor [2]): 25%
pKB (gastrin receptor [3]): 6.2

Compound: CC(C)(C)OC(=O)N[C@@H](Cc1c[nH]c2ccccc12)C(=O)N[C@@H](Cc1ccc2ccccc2c1)C(=O)N[C@@H](CC(=O)O)C(=O)NCCc1ccc(Cl)c(Cl)c1 [Example 42, N-t-Butyloxycarbonyl-L-tryptophyl-L-3-(2-naphthyl)alanyl-L-aspartyl-3,4-dichlorophenethylamide]
pKB [1]: 6.0
pKB mouse stomach (gastrin receptor [2]): 5.2
Acid seretion at 10^-5 M test compound, relative to pentagastrin (%) (gastrin receptor [2]): 30%
pKB (gastrin receptor [3]): 5.3

Compound: CC(C)(C)OC(=O)N[C@@H](Cc1c[nH]c2ccccc12)C(=O)N[C@@H](Cc1ccc2ccccc2c1)C(=O)N[C@H](CC(=O)O)C(=O)NCCc1ccc(F)cc1 [Example 52, N-t-Butyloxycarbonyl-L-tryptophyl-L-3-(2-naphthyl)alanyl-D-aspartyl-4-fluorophenethylamide]
pKB [1]: 6.4
pKB mouse stomach (gastrin receptor [2]): 5.6
Acid seretion at 10^-5 M test compound, relative to pentagastrin (%) (gastrin receptor [2]): 25%
pKB (gastrin receptor [3]): 5.9

Compound: CC(C)(C)OC(=O)N[C@@H](Cc1c[nH]c2ccccc12)C(=O)N[C@@H](Cc1ccc2ccccc2c1)C(=O)N[C@@H](CC(=O)O)C(=O)N[C@@H](Cc1ccccc1)C(N)=O [Example 1, N-t-Butyloxycarbonyl-L-tryptophyl-L-3-(2-naphthyl)alanyl-L-aspartyl-L-phenylalaninamide] (Boc-W[2Nal]DF-NH2)
Kb [1]: 5010 nM
Kb (gastrin receptor [2]): 631 nM
Acid seretion at 10^-5 M test compound, relative to pentagastrin (%) (gastrin receptor [2]): 65%
Kb (gastrin receptor [3]): 3160 nM

Compound: CC(C)(C)OC(=O)N[C@@H](Cc1c[nH]c2ccccc12)C(=O)N[C@@H](Cc1ccc2ccccc2c1)C(=O)N[C@@H](CC(=O)O)C(=O)NCCc1cccc(F)c1 [Example 65, N-t-Butyloxycarbonyl-L-tryptophyl-L-3-(2-naphthyl)alanyl-L-aspartyl-3-fluorophenethylamide]
pKB [1]: 6.7
pKB mouse stomach (gastrin receptor [2]): 5.3
pKB (gastrin receptor [3]): 6.1

Compound: CC(C)(C)OC(=O)N[C@@H](Cc1c[nH]c2ccccc12)C(=O)N[C@@H](Cc1ccc2ccccc2c1)C(=O)N[C@@H](CC(=O)O)C(=O)NCCc1ccc(F)cc1 [Example 47, N-t-Butyloxycarbonyl-L-tryptophyl-L-3-(2-naphthyl)alanyl-L-aspartyl-4-fluorophenethylamide]
pKB [1]: 6.7
pKB mouse stomach (gastrin receptor [2]): 5.5
Acid seretion at 10^-5 M test compound, relative to pentagastrin (%) (gastrin receptor [2]): 25%
pKB (gastrin receptor [3]): 5.8

Compound: N-t-Butyloxycarbonyl-L-tryptophyl-L-3-(2-naphthyl)alanyl-L-aspartylphenethylamide [Example 2]
pKB [1]: 6.9
pKB mouse stomach (gastrin receptor [2]): 5.6
Acid seretion at 10^-5 M test compound, relative to pentagastrin (%) (gastrin receptor [2]): 20%
pKB (gastrin receptor [3]): 5.9

Further lines, results first:

pKB [1]: 7.2
pKB mouse stomach (gastrin receptor [2]): 6.0
pKB (gastrin receptor [3]): 5.9
Compound: COc1ccc(CCNC(=O)[C@H](CC(=O)O)NC(=O)[C@H](Cc2ccc3ccccc3c2)NC(=O)[C@H](Cc2c[nH]c3ccccc23)NC(=O)OC(C)(C)C)cc1 [Example 10, N-t-Butyloxycarbonyl-L-tryptophyl-L-3-(2-naphthyl)alanyl-L-aspartyl-(4-methoxy)phenethylamide]

Kb [1]: 631 nM
Kb (gastrin receptor [2]): 1580 nM
Acid seretion at 10^-5 M test compound, relative to pentagastrin (%) (gastrin receptor [2]): 54%
Kb (gastrin receptor [3]): 1260 nM
Compound: CC(C)(C)OC(=O)N[C@@H](Cc1c[nH]c2ccc(F)cc12)C(=O)N[C@@H](Cc1ccc2ccccc2c1)C(=O)N[C@@H](CC(=O)O)C(=O)N[C@@H](Cc1ccccc1)C(N)=O [Example 18, N-t-Butyloxycarbonyl-5-fluoro-L-tryptophyl-L-3-(2-naphthyl)alanyl-L-aspartyl-L-phenylalaninamide] (Boc-[Trp(5-F)][2Nal]DF-NH2)

pKB [1]: 6.9
pKB mouse stomach (gastrin receptor [2]): 6.5
Acid seretion at 10^-5 M test compound, relative to pentagastrin (%) (gastrin receptor [2]): 40%
pKB (gastrin receptor [3]): 5.8
Compound: CC(C)(C)OC(=O)N[C@@H](Cc1c[nH]c2ccccc12)C(=O)N[C@@H](Cc1ccc2ccccc2c1)C(=O)N[C@@H](CC(=O)O)C(=O)N[C@@H]1CCC[C@@H]1c1ccccc1 (single isomer, unassigned; diastereomer 2) [Example 34, N-t-Butyloxycarbonyl-L-tryptophyl-L-3-(2-naphthyl)alanyl-L-aspartyl-cis-2-phenylcyclopentylamide (diastereomer 2)]

pKB [1]: 5.8
pKB mouse stomach (gastrin receptor [2]): 5.7
pKB (gastrin receptor [3]): 5.3
Compound: COc1ccc(C[C@H](NC(=O)[C@H](CC(=O)O)NC(=O)[C@H](Cc2ccc3ccccc3c2)NC(=O)[C@H](Cc2c[nH]c3ccccc23)NC(=O)OC(C)(C)C)C(N)=O)cc1 [Example 7, N-t-Butyloxycarbonyl-L-tryptophyl-L-3-(2-naphthyl)alanyl-L-aspartyl-L-(4-methoxyphenylalanin)amide] (Boc-W[2Nal]DY(Me)-NH2)

pKB [1]: 7.0
pKB mouse stomach (gastrin receptor [2]): 5.2
pKB (gastrin receptor [3]): 6.2
Compound: CC(C)(C)OC(=O)N[C@@H](Cc1c[nH]c2ccccc12)C(=O)N[C@@H](Cc1ccc2ccccc2c1)C(=O)N[C@@H](CC(=O)O)C(=O)N[C@@H]1CCC[C@@H]1c1ccccc1 (single isomer, unassigned; diastereomer 1) [Example 33, N-t-Butyloxycarbonyl-L-tryptophyl-L-3-(2-naphthyl)alanyl-L-aspartyl-cis-2-phenylcyclopentylamide (diastereomer 1)]
